Literature values as cited in patent US8536378B2 (The Board of Trustees of the Leland Stanford Junior …, priority 2007, dated 2013).

How the values were obtained:
[1] = test system: latent HIV-1; conditions: fold more potent than prostratin
[2] = test system: CD4 and CXCR4 receptors
[3] = test system: latent HIV; conditions: latently infected CD4+ T cells
[4] = test system: T-lymphoblastoid CEM-SS and C-8166 cell lines; conditions: in vitro
[5] = compared with other phorbol esters such as PMA
[6] = estimate in reference note 20

| Structure (SMILES) | potency in activating latent HIV-1 relative to prostratin [1] | downregulation of CD4 and CXCR4 receptors [2] | HIV gene expression / activation of latent HIV [3] | CD4 receptors on cell surfaces ([2]; CEM-SS and MT-4 cell lines) | cytotoxicity: concentration up to which no sign of cytotoxicity was observed ([4]; CEM-SS and C-8166 cell lines) [µM] | prostratin concentration at which cell viability was restored to the level of uninfected controls ([4]; HIV-infected CEM-SS and C-8166 cell lines) | tumor-promoting activity [5] | estimated oral bioavailability [6] [%] |
| --- | --- | --- | --- | --- | --- | --- | --- | --- |
| CC1=C[C@H]2[C@@]3(O)[C@H](C)C[C@]4(OC(=O)Cc5ccccc5)C([C@@H]3C=C(CO)C[C@]2(O)C1=O)C4(C)C (stereo partly drawn) [DPP, 12-deoxyphorbol-13-phenylacetate] | 20-30 fold | downregulates CD4 and CXCR4 receptors at nanomolar concentrations |  |  |  |  |  |  |
| CCCCCCCCCCCCCC(=O)O[C@@H]1[C@@H](C)[C@@]2(O)[C@@H](C=C(CO)C[C@]3(O)C(=O)C(C)=C[C@@H]23)[C@@H]2C(C)(C)[C@]12OC(C)=O [PMA, phorbol 12-myristate-13-acetate, reference compound] |  |  | activate latent HIV |  |  |  |  |  |
| CC(=O)O[C@@]12C[C@@H](C)[C@@]3(O)[C@@H](C=C(CO)C[C@]4(O)C(=O)C(C)=C[C@@H]34)[C@@H]1C2(C)C [prostratin, 12-deoxyphorbol-13-acetate] |  |  | induces HIV gene expression | significantly reduced | > 25 | approximately 1 μM | does not exhibit the tumor-promoting activity | ~28 |
